Source: PubChem BioAssay (NCI)
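Method: 48-hour compound exposure of cells in 96-well plates, five concentrations, linear interpolation of endpoints. At the TGI there is no net growth.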

Experiments:
Test in all cases: NCI anticancer screen, dose series, 48 h
OVCAR-5 ovarian = test system: OVCAR-5 ovarian
MOLT-4 leukemia = test system: MOLT-4 leukemia
UACC-62 melanoma = test system: UACC-62 melanoma
OVCAR-3 ovarian = test system: OVCAR-3 ovarian
COLO 205 colon = test system: COLO 205 colon
IGROV1 ovarian = test system: IGROV1 ovarian
U251 CNS = test system: U251 CNS
SK-OV-3 ovarian = test system: SK-OV-3 ovarian
SN12C renal = test system: SN12C renal
M14 melanoma = test system: M14 melanoma

Measured: TGI

CSc1ccc(-c2cc(-c3nc4ccccc4[nH]3)nc3[nH]c(-c4nc5ccccc5[nH]4)cc(=O)c23)cc1
> 100 µM: all assays above

Nc1ccc(C(=O)NN2C(=O)C(Cl)C2c2ccccc2O)cc1 (stereo not given)
> 100 µM: all assays above

Cc1nc2ccc(N=NN(C)C)cc2[nH]1
> 100 µM: all assays above

CCOC(=O)C1C(c2ccc([N+](=O)[O-])cc2)NC(c2ccc([N+](=O)[O-])cc2)C(C(=O)OC)S1(=O)=O (stereo not given)
> 100 µM: all assays above
